Test results from patent US6380204B1, “Atropisomers of 3-heteroaryl-4(3H)-quinazolinones for the treatment of neurodegenerative and CNS-trauma related conditions” (Pfizer INC, priority 1997, dated 2002).

Columns and labels:
global ischemia = conditions: noncompetitive AMPA receptor antagonist; LaPeillet et al.; cited from earlier work
[1] = system: global and focal ischemic damage; conditions: competitive AMPA receptor antagonist; Sheardown et al., Buchan et al., LePeillet et al.; cited from earlier work

Compound | melting point [°C] | further results
Cc1nc(CCc2nc3ccc(F)cc3c(=O)n2-c2cccnc2C)cs1 | 151 to 153 | –
CS(=O)(=O)O.Cc1nc(C=Cc2nc3ccc(F)cc3c(=O)n2-c2cccnc2C)cs1 (single isomer, unassigned) | 145 to 146 | –
CC1=NN=C(c2ccc(N)cc2)c2cc3c(cc2C1)OCO3 [GKYI 52466] | – | neuroprotection in rat global ischemia models (global ischemia): effective neuroprotective agent
NS(=O)(=O)c1cccc2c1c([N+](=O)[O-])cc1nc(O)c(O)nc12 [NBQX, 2,3-dihydroxy-6-nitro-7-sulfamoylbenzo[f-]quinoxaline] | – | prevention of global and focal ischemic damage [1]: effective in preventing global and focal ischemic damage
